Laboratory results from paper PMC6409032, “Antileishmanial Evaluation of the Leaf Latex of Aloe macrocarpa, Aloin A/B, and Its Semisynthetic Derivatives against Two Leishmania Species” (Evidence-based Complementary and Alternative Medicine : eCAM, 2019).
Read-outs that look alike come from different tables or passages of the source.

Columns and labels:
[1] = tested on: Leishmania aethiopica promastigotes; assay: In vitro antipromastigote assay (resazurin fluorescence); assay type: cell-based
Procedure: (§1) In vitro antileishmanial activity tests were carried out against the promastigote stage and axenically cultured amastigotes of L. aethiopica and L. donovani. The two isolates were grown in tissue culture flasks containing RPMI 1640 medium supplemented with 10% heat-inactivated fetal calf serum, 100 IU penicillin/mL, and 100 μg/mL streptomycin solution at 22°C for L. aethiopica and 24°C for L. donovani. Axenically cultured amastigotes were obtained from the late stationary phase promastigotes (3 × 10^6 cells/ml). The cells were centrifuged and then resuspended in medium 199 with Hank's salts supplemented with 20% FBS, 2 mM L-glutamine, 50 IU/mL penicillin, and 50 μg/mL streptomycin. The pH was adjusted to 5.5 using 1 N HCl. Following incubation of cells at 31°C for L. aethiopica and 37°C for L. donovani at 5% CO2, amastigote-like rounded morphology together with loss of flagella and cell clumping started appearing within 24 h. The parasites were kept for a week as some motile parasites with intermediate forms and short flagella were detected. The human monocytic leukemia cell line THP-1 cells were incubated in RPMI 1640 medium plus 10% hi-FCS and 20 ng/mL phorbol 12-myristate 13-acetate (PMA; Sigma) at 37°C and 5% CO2 for 72 h. A cell-free medium was used to grow parasites in vitro and to set up the test system for determination of the IC50 values of the test substances.
(§2) To a separate 96-well microtiter plate containing 100 μL of complete culture medium, each of the test substances was added to triplicate wells to achieve a final concentration of 100 μg/mL. Each one hundred microliter suspension of the parasites (3.5 × 10^6 promastigotes or axenically cultured amastigotes /mL of L. aethiopica or L. donovani) obtained from the previous culture was then added to each well, and contents of each plates were maintained for 72 h, at room temperature for promastigotes stages of both strains, at 31°C and 37°C for axenically cultured amastigotes of L. aethiopica and L. donovani, respectively. After 68 h of incubation, 20 μL (10% of the total volume of each well) resazurin (0.125 mg/mL) was added, covered with aluminum foil, and left at temperature mentioned above. Antileishmanial effect of the test substances was studied on the basis of fluorescence characteristic of resazurin added to drug-treated cultures.
(§3) Antipromastigote effect was evaluated against clinical isolates of L. aethiopica and L. donovani strains, as per the method described by Abeje et al..
(§4) Antileishmanial activity (IC50) was expressed as mean ± SD of triplicate measurements. IC50 values were evaluated from sigmoidal dose-response curves of percent inhibition using the computer software GraphPad Prism 8 (GraphPad Software, Inc., CA, USA), and values expressed as mean ± SD of triplicate experiments.

[2] = tested on: Leishmania donovani promastigotes; assay: as above; assay type: cell-based; details: L. donovani promastigotes, 72 h
Procedure: as §1, §2, §3, §4

L. major amastigotes = tested on: L. major amastigotes; set-up: method as in PMID 26151018; details: in vitro; cited from earlier work
[3] = tested on: axenically cultured amastigotes of Leishmania aethiopica; assay: In vitro assay on axenically cultured amastigotes (resazurin fluorescence); assay type: cell-based; details: for Selectivity index: LC50 on THP-1 cells / IC50 on L. aethiopica amastigotes; for IC50: Leishmania aethiopica, L. aethiopica axenic amastigotes, 72 h
Procedure: as §1, with “The human monocytic leukemia cell line THP-1 cells were incubated in RPMI 1640 medium plus 10% hi-FCS and 20 ng/mL phorbol 12-myristate 13-acetate (PMA; Sigma) at 37°C and 5% CO2 for 72 h.” left out, “substances. […] Each one hundred microliter suspension of the parasites (3.5 × 10^6 promastigotes or axenically cultured amastigotes /mL of L. aethiopica or L. donovani) obtained from the previous culture was then added to each well, and contents of each plates were maintained for 72 h, at room temperature for promastigotes stages of both strains, at 31°C and 37°C for axenically cultured amastigotes of L. aethiopica and L. donovani, respectively. After 68 h of incubation, 20 μL (10% of the total volume of each well) resazurin (0.125 mg/mL) was added, covered with aluminum foil, and left at temperature mentioned above. […] Antileishmanial activity (IC50) was expressed as mean ± SD of triplicate measurements. IC50 values were evaluated from sigmoidal dose-response curves of percent inhibition using the computer software GraphPad Prism 8 (GraphPad Software, Inc., CA, USA), and values expressed as mean ± SD of triplicate experiments.” for “substances.”

[4] = tested on: axenically cultured amastigotes of Leishmania donovani; assay: as above; assay type: cell-based; details: for Selectivity index: LC50 on THP-1 cells / IC50 on L. donovani amastigotes; for IC50: Leishmania donovani, L. donovani axenic amastigotes, 72 h
Procedure: as §1, with “The human monocytic leukemia cell line THP-1 cells were incubated in RPMI 1640 medium plus 10% hi-FCS and 20 ng/mL phorbol 12-myristate 13-acetate (PMA; Sigma) at 37°C and 5% CO2 for 72 h.” left out, “substances. […] Each one hundred microliter suspension of the parasites (3.5 × 10^6 promastigotes or axenically cultured amastigotes /mL of L. aethiopica or L. donovani) obtained from the previous culture was then added to each well, and contents of each plates were maintained for 72 h, at room temperature for promastigotes stages of both strains, at 31°C and 37°C for axenically cultured amastigotes of L. aethiopica and L. donovani, respectively. After 68 h of incubation, 20 μL (10% of the total volume of each well) resazurin (0.125 mg/mL) was added, covered with aluminum foil, and left at temperature mentioned above. […] Antileishmanial activity (IC50) was expressed as mean ± SD of triplicate measurements. IC50 values were evaluated from sigmoidal dose-response curves of percent inhibition using the computer software GraphPad Prism 8 (GraphPad Software, Inc., CA, USA), and values expressed as mean ± SD of triplicate experiments.” for “substances.”

[5] = Cytotoxicity study in THP-1 monocytes (Alamar Blue); assay type: cell-based; details: human
Procedure: In vitro antileishmanial activity tests were carried out against the promastigote stage and axenically cultured amastigotes of L. aethiopica and L. donovani. […] Axenically cultured amastigotes were obtained from the late stationary phase promastigotes (3 × 10^6 cells/ml). […] The pH was adjusted to 5.5 using 1 N HCl. Following incubation of cells at 31°C for L. aethiopica and 37°C for L. donovani at 5% CO2, amastigote-like rounded morphology together with loss of flagella and cell clumping started appearing within 24 h. The parasites were kept for a week as some motile parasites with intermediate forms and short flagella were detected. […] A cell-free medium was used to grow parasites in vitro and to set up the test system for determination of the IC50 values of the test substances.
THP-1 monocytes were plated onto 96-well plates at a density of 4 × 10^4 cells per well (in 200 μL volume) in the presence or absence of test substances and plates incubated at 37°C, 5% CO2 for 72 h. After adding Alamar Blue™ during the last 3 h of incubation, cell viability was measured fluorometrically as described above.

[6] = Acute toxicity study (OECD limit test); details: mouse, in vivo; Swiss albino mice, limit test dose 2000 mg/kg, OECD guideline
Procedure: Acute toxicity study was carried out as described earlier using the limit test dose of 2000 mg/kg according to OECD guideline for testing of chemicals on Swiss albino mice.

[7] = L. aethiopica promastigotes, 72 h, mean ± SD, n = 3, read-out: Antipromastigote activity IC50
[8] = L. aethiopica promastigotes, 72 h, read-out: Antipromastigote activity IC50 (micromolar, in parenthesis) (converted)
[9] = mean ± SD, n = 3, read-out: Antipromastigote activity IC50
[10] = read-out: Antipromastigote activity IC50 (micromolar, in parenthesis) (converted)
[11] = 31°C, mean ± SD, n = 3, read-out: Antiaxenically cultured amastigotes activity IC50
[12] = read-out: Antiaxenically cultured amastigotes activity IC50 (micromolar, in parenthesis) (converted)
[13] = 37°C, mean ± SD, n = 3, read-out: Antiaxenically cultured amastigotes activity IC50
[14] = mean ± SD, n = 3, read-out: Cytotoxic effect in THP-1 LC50
[15] = read-out: Cytotoxic effect in THP-1 LC50 (micromolar, in parenthesis) (converted)

| Compound | IC50 [1, 7] [µg/mL] | IC50 [1, 8] [µM] | IC50 [2, 9] [µg/mL] | IC50 [2, 10] [µM] | inhibitory concentrations against L. major amastigotes (L. major amastigotes) [µg/mL] | Selectivity index [3] | IC50 [3, 11] [µg/mL] | IC50 [3, 12] [µM] | Selectivity index [4] | IC50 [4, 13] [µg/mL] | IC50 [4, 12] [µM] | CC50 at 72 h [5, 14] [µg/mL] | CC50 at 72 h [5, 15] [µM] | LD50 [6] [mg/kg] | IC50 ([1]; promastigotes and axenic amastigotes of L. aethiopica and L. donovani, read-out: IC50 (range over both stages and both species)) [µM] |
| --- | --- | --- | --- | --- | --- | --- | --- | --- | --- | --- | --- | --- | --- | --- | --- |
| O=C1c2cccc(O)c2C(=O)c2c(O)cc(CO)cc21 [Aloe-emodin, aloe-emodin] | 2.81 ± 0.43 | 10.4 | 2.85 ± 0.5 | 10.6 | 40 | 65.22 | 2.23 ± 0.33 | 8.3 | 52.89 | 2.75 ± 0.03 | 10.2 | 145.4 ± 0.27 | 539 | > 2000 | – |
| O=C1c2c(O)cccc2C(C2OC(CO)C(O)C(O)C2O)c2cc(CO)cc(O)c21 (centres unmarked) [Aloin A/B, aloin A/B] | 3.94 ± 0.33 | 9.4 | 5.06 ± 0.22 | 12.1 | – | 55.11 | 2.8 ± 1.02 | 6.7 | 52.84 | 2.92 ± 0.15 | 7 | 154.3 ± 0.22 | 369 | > 2000 | – |
| C[C@@H]1[C@H](O)[C@@H](C)/C=C/C=C/C=C/C=C/C=C/C=C/C=C/[C@H](O[C@@H]2O[C@H](C)[C@@H](O)[C@H](N)[C@@H]2O)C[C@@H]2O[C@](O)(C[C@@H](O)C[C@@H](O)[C@H](O)CC[C@@H](O)C[C@@H](O)CC(=O)O[C@H]1C)C[C@H](O)[C@H]2C(=O)O [Amphotericin B, amphotericin B, reference compound] | 2.43 ± 0.22 | 2.6 | 2.45 ± 0.21 | 2.7 | – | 8.31 | 1.23 ± 0.41 | 1.3 | 6.60 | 1.55 ± 0.51 | 1.7 | 10.2 ± 0.32 | 11.1 | – | 1.3 to 2.7 |
| O=C(O)c1cc(O)c2c(c1)C(=O)c1cccc(O)c1C2=O [Rhein, rhein] | 1.91 ± 0.61 | 6.7 | 2.07 ± 0.11 | 7.3 | – | 171.98 | 1.01 ± 0.22 | 3.6 | 148.46 | 1.17 ± 0.42 | 4.1 | 173.7 ± 0.11 | 612 | > 2000 | – |
